In patent US20090239841A1, “Diaryl Ureas as CB1 Antagonists” (priority 2004, published 2009):

Molecular target: T1, hCB1 (Homo sapiens, UniProt P21554)
T1 construct: made in house; host or cells: Sf9 insect cells (baculovirus), P2 membranes
Assay: Agonist-induced GTP binding (GTPγ35S) assay at CB1, Example 8
Type: biochemical
Details: Table II; IC50 at CB1, GTP binding with 1 nM CP55,940; read-out: IC50
Excerpt: As noted above, compounds provided herein are CB1 antagonists. Certain such compounds are non-competitive CB1 antagonists. In addition, or alternatively, certain compounds provided herein display CB1 specificity. CB1 antagonist activity may be confirmed using an agonist-induced GTP binding assay, such as the assay described in Example 8. Such assays employ a CB1-containing cell membrane preparation (e.g., a preparation of membranes of insect cells that recombinantly express CB1) to determine the effect of a test compound on CB1 agonist-induced GTP binding to CB1. Briefly, a first cell membrane preparation comprising CB1 is contacted with: (i) labeled GTP; (ii) a CB1 agonist; and (iii) a test compound to yield a test membrane preparation. Simultaneously, or in either order, a second cell membrane preparation comprising CB1 is contacted with: (i) labeled GTP; and (ii) a CB1 agonist to yield a control membrane preparation. The labeled GTP is preferably GTPγ^35S; a representative CB1 agonist is CP55,940. Such contact is performed under conditions that are suitable for GTP binding to CB1, such as the conditions described in Example 8. The concentrations of labeled GTP and CB1 agonist used are generally concentrations that are sufficient to result in a detectable increase in the amount of labeled GTP bound to the membrane preparation in the presence of CB1 agonist. Such concentrations may be determined by routine experimentation; representative suitable concentrations are provided in Example 8. Generally, a range of test compound concentrations is used (e.g., ranging from 10^−10M to 10^−5M).
After sufficient contact (e.g., incubation) to allow GTP binding to the membrane preparations, a signal that corresponds to (represents) the amount of bound, labeled GTP is detected (typically, unbound labeled GTP is first removed via a washing step). In other words, simultaneously or in either order: (i) a test signal that represents an amount of bound, labeled GTP in the test membrane preparation is detected; and (ii) a control signal that represents an amount of bound, labeled GTP in the control membrane preparation is detected. The nature of the signal detected is determined by the type of label used. For example, if the GTP is radioactively labeled, the signal detected is radioactive decay (e.g., via liquid scintillation spectrometry). The CB1 antagonist activity of the test compound is then determined by comparing the test signal with the control signal.
This assay can also be used to detect partial agonism mediated by antagonist compounds. A compound being analyzed in this assay is referred to herein as a “test compound.” Agonist-stimulated GTP binding activity is measured as follows: Four independent baculoviral stocks (one directing the expression of hCB1 and three directing the expression of each of the three subunits of a heterotrimeric G-protein) are used to infect a culture of Sf9 cells as described in Example 5.
Agonist-stimulated GTP binding on purified membranes (as described in Example 6) is initially assessed using the cannabinoid agonist CP55,940 to ascertain that the receptor/G-protein-alpha-beta-gamma combination(s) yield a functional response as measured by GTP binding.
P2 membranes are resuspended by Dounce homogenization (tight pestle) in GTP binding assay buffer (50 mM Tris pH 7.4, 120 mM NaCl, 5 mM MgCl2, 2 mM EGTA, 0.1% BSA, 0.1 mM bacitracin, 10 KIU/mL aprotinin, 5 μM GDP) and added to reaction tubes at a concentration of 10 μg protein/reaction tube. After adding increasing doses of the agonist CP55,940 at concentrations ranging from 10^−12 M to 10^−6 M, reactions are initiated by the addition of […] GTPγ^35S. In competition experiments, non-radiolabeled test compounds are added to separate assays at concentrations ranging from 10^−10 M to 10^−5 M along with 1 nM CP55,940 to yield a final volume of 0.25 mL. […]

T1 sequence (P21554 whole entry): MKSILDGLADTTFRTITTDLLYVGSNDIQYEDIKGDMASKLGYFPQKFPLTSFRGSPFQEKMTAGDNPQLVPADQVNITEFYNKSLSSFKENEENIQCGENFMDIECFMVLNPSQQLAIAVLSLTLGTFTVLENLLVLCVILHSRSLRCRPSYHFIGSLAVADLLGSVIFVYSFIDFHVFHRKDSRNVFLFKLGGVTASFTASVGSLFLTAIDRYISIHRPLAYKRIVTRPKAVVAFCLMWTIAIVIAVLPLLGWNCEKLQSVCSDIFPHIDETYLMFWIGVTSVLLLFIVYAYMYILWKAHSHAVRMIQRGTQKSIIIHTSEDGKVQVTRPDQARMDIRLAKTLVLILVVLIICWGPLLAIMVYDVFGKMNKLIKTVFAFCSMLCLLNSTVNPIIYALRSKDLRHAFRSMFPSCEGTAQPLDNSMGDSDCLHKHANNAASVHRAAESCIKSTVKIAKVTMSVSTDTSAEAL

Structure (SMILES)	IC50 [nM]
O=C(Nc1ccc(OC(F)(F)F)cc1)Nc1cccc(OCCO)c1 [Compound 101, N-[3-(2-hydroxyethoxy)phenyl]-N′-[4-(trifluoromethoxy)phenyl]urea]	< 2000
O=C(Nc1ccc(COc2ccccc2)cc1)Nc1ccc(OC(F)F)cc1 [Compound 102, N-[4-(dif1uoromethoxy)phenyl]-N′-[4-(phenoxymethyl)phenyl]urea]	< 2000
O=C(Nc1ccc(OC(F)F)cc1)Nc1cccc(OC(F)F)c1 [Compound 103, N-[3-(difluoromethoxy)phenyl]-N′-[4-(difluoromethoxy)phenyl]urea]	< 2000
O=C(Nc1ccc(OC(F)F)cc1)Nc1ccc(N2CCCC2)cc1 [Compound 104, N-[4-(difluoromethoxy)phenyl]-N′-(4-pyrrolidin-1-ylphenyl)urea]	< 2000
O=C(Nc1ccc(OC(F)F)cc1)Nc1ccc(N2CCCCC2)cc1 [Compound 105, N-[4-(difluoromethoxy)phenyl]-N′-(4-piperidin-1-ylphenyl)urea]	< 2000
O=C(Nc1ccc(OC(F)F)cc1)Nc1cc(C2CC2)n[nH]1 [Compound 106, N-(3-cyclopropyl-1H-pyrazol-5-yl)-N′-[4-(difluoromethoxy)phenyl]urea]	< 2000
O=C(Nc1ccc(OC(F)F)cc1)Nc1cc(-c2ccccc2)n[nH]1 [Compound 107, N-[4-(difluoromethoxy)phenyl]-N′-(3-phenyl-1H-pyrazol-5-yl)urea]	< 2000
O=C(Nc1ccc(OC(F)F)cc1)Nc1cccc(Oc2ncccn2)c1 [Compound 108, N-[4-(difluoromethoxy)phenyl]-N′-[3-(pyrimidin-2-yloxy)phenyl]urea]	< 2000
CS(=O)(=O)N1CCc2cc(NC(=O)Nc3ccc(OC(F)F)cc3)ccc21 [Compound 109, N-[4-(difluoromethoxy)phenyl]-N′-[1-(methylsu1fonyl)-2,3-dihydro-1H-indol-5-yl]urea]	< 2000
O=C(Nc1ccc(OC(F)F)cc1)Nc1ccc(S(=O)(=O)N2CCCCC2)cc1 [Compound 110, N-[4-(difluoromethoxy)phenyl]-N′-[4-(piperidin-1-ylsulfonyl)phenyl]urea]	< 2000
O=C(Nc1ccc(OC(F)F)cc1)Nc1ccc(S(=O)(=O)N2CCCC2)cc1 [Compound 111, N-[4-(difluoromethoxy)phenyl]-N′-[4-(pyrrolidin-1-ylsulfonyl)phenyl]urea]	< 2000
O=C(Nc1cccc(OC(F)F)c1)Nc1cccc(OC(F)F)c1 [Compound 112, N,N′-bis[3-(difluoromethoxy)phenyl]urea]	< 2000
COc1ccc(NC(=O)Nc2ccc(OC(F)F)cc2)cn1 [Compound 113, N-[4-(difluoromethoxy)phenyl]-N′-(6-methoxypyridin-3-yl)urea]	< 2000
O=C(Nc1ccc(OC(F)F)cc1)Nc1ccc(Br)nc1 [Compound 114, N-(6-bromopyridin-3-yl)-N′-[4-(difluoromethoxy)phenyl]urea]	< 2000
Cc1noc(C)c1-c1cccc(NC(=O)Nc2ccc(OC(F)F)cc2)c1 [Compound 115, N-[4-(difluoromethoxy)phenyl]-N′-[3-(3,5-dimethylisoxazol-4-yl)phenyl]urea]	< 2000
Cc1n[nH]cc1-c1cccc(NC(=O)Nc2ccc(OC(F)F)cc2)c1 [Compound 116, N-[4-(difluoromethoxy)phenyl]-N′-[3-(3-methyl-1H-pyrazol-4-yl)phenyl]urea]	< 2000
Cc1n[nH]c(C)c1-c1cccc(NC(=O)Nc2ccc(OC(F)F)cc2)c1 [Compound 117, N-[4-(difluoromethoxy)phenyl]-N′-[3-(3,5-dimethyl-1H-pyrazol-4-yl)phenyl]urea]	< 2000
COc1nc(-c2cccc(NC(=O)Nc3ccc(OC(F)F)cc3)c2)ncc1C(F)(F)F [Compound 118, N-[4-(difluoromethoxy)phenyl]-N′-{3-[4-methoxy-5-(trifluoromethyl)pyrimidin-2-yl]phenyl}urea]	< 2000

Structure (SMILES)	IC50 [nM]
COc1ncc(C(F)(F)F)c(-c2cccc(NC(=O)Nc3ccc(OC(F)F)cc3)c2)n1 [Compound 119, N-[4-(difluoromethoxy)phenyl]-N′-{3-[2-methoxy-5-(trifluoromethyl)pyrimidin-4-yl]phenyl}urea]	< 2000
Cc1cc(-c2cccc(NC(=O)Nc3ccc(OC(F)F)cc3)c2)cc(C)n1 [Compound 120, N-[4-(difluoromethoxy)phenyl]-N′-[3-(2,6-dimethylpyridin-4-yl)phenyl]urea]	< 2000
COc1ccc(C(F)(F)F)c(-c2cccc(NC(=O)Nc3ccc(OC(F)F)cc3)c2)n1 [Compound 121, N-[4-(difluoromethoxy)phenyl]-N′-{3-[6-methoxy-3-(trifluoromethyl)pyridin-2-yl]phenyl}urea]	< 2000
CCC(CC)Oc1ccc(-c2cccc(NC(=O)Nc3ccc(OC(F)F)cc3)c2)nc1NC [Compound 122, N-[4-(difluoromethoxy)phenyl]-N′-{3-[5-(1-ethylpropoxy)-6-(methylamino)pyridin-2-yl]phenyl}urea]	< 2000
COc1ccc(-c2cccc(NC(=O)Nc3ccc(OC(F)F)cc3)c2)nc1Cl [Compound 123, N-[3-(6-chloro-5-methoxypyridin-2-yl)phenyl]-N′-[4-(difluoromethoxy)phenyl]urea]	< 2000
CCc1cncc(-c2cccc(NC(=O)Nc3ccc(OC(F)F)cc3)c2)n1 [Compound 124, N-[4-(difluoromethoxy)phenyl]-N′-[3-(6-ethylpyrazin-2-yl)phenyl]urea]	< 2000
CCc1ccc(NC(=O)Nc2cnc3ccccc3c2)cc1 [Compound 125, N-(4-ethylphenyl)-N′-quinolin-3-ylurea]	< 2000
O=C(Nc1ccc(OC(F)F)cc1)Nc1cnc2ccccc2c1 [Compound 126, N-[4-(difluoromethoxy)phenyl]-N′-quinolin-3-ylurea]	< 2000
CCc1ccc(NC(=O)Nc2ccc3ncccc3c2)cc1 [Compound 128, N-(4-ethylphenyl)-N′-quinolin-6-ylurea]	< 2000
O=C(Nc1ccc(OC(F)F)cc1)Nc1ccc2ncccc2c1 [Compound 129, N-[4-(difluoromethoxy)phenyl]-N′-quinolin-6-ylurea]	< 2000
Cc1nc2ccc(NC(=O)Nc3ccc(OC(F)F)cc3)cc2o1 [Compound 130, N-[4-(difluoromethoxy)phenyl]-N′-(2-methyl-1,3-benzoxazol-6-yl)urea]	< 2000
CCOc1ccc(NC(=O)Nc2ccc(OC(F)F)cc2)cc1 [Compound 131, N-[4-(difluoromethoxy)phenyl]-N′-(4-ethoxyphenyl)urea]	< 2000
COC(=O)c1ccc(NC(=O)Nc2ccc(OC(F)F)cc2)cc1 [Compound 132, methyl 4-[({[4-(difluoromethoxy)phenyl]amino}carbonyl)amino]benzoate]	< 2000
O=C(Nc1ccc(OC(F)F)cc1)Nc1ccc2[nH]ncc2c1 [Compound 133]	< 2000
COC(=O)c1ccc(NC(=O)Nc2ccc(OC(F)F)cc2)cc1OC [Compound 134, methyl 4-[({[4-(difluoromethoxy)phenyl]amino}carbonyl)amino]-2-methoxybenzoate]	< 2000
O=C(Nc1ccc(OC(F)F)cc1)Nc1ccc2c(c1)OC(=O)C2 [Compound 135, N-[4-(difluoromethoxy)phenyl]-N′-(2-oxo-2,3-dihydro-1-benzofuran-6-yl)urea]	< 2000
Nc1ncc(Br)cc1NC(=O)Nc1ccc(OC(F)F)cc1 [Compound 136, N-(2-amino-5-bromopyridin-3-yl)-N′-[4-(difluoromethoxy)phenyl]urea]	< 2000
O=C(Nc1ccc(OC(F)F)cc1)Nc1cc(OC(F)F)ncn1 [Compound 137, N-[4-(difluoromethoxy)phenyl]-N′-[6-(difluoromethoxy)pyrimidin-4-yl]urea]	< 2000
